Measured values from the supplement of paper PMC10307832.

How the values were obtained:
Assay in all cases: relative viability (nuclei count vs DMSO), 5 days (fraction); higher = more cells survive
BEN = tested on: BEN
Outline: (§1)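 For relative viability, nuclei counts in treated wells were divided by those in vehicle wells. Lung cancer cell lines had been pin-tool dosed in 1536-well plates the day after seeding and cultured for 5 days, then fixed and stained in one step (final 0.05% Triton X-100, 1% formaldehyde, 1 ug/ml Hoechst) and imaged at 4×. Doses were one drug alone or a fixed anchor-drug dose plus five library-drug doses (not always all listed) in √10 steps, and values are duplicate-plate medians.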

CAL-12T = tested on: CAL-12T
Outline: as §1

NCI-H2228 = tested on: NCI-H2228
Outline: as §1

SK-LU-1 = tested on: SK-LU-1
Outline: as §1

201T = tested on: 201T
Outline: as §1

LCLC-97TM1 = tested on: LCLC-97TM1
Outline: as §1

NCI-H2405 = tested on: NCI-H2405
Outline: as §1

NCI-H727 = tested on: NCI-H727
Outline: as §1

NCI-H1793 = tested on: NCI-H1793
Outline: as §1

NCI-H1437 = tested on: NCI-H1437
Outline: as §1

NCI-H3122 = tested on: NCI-H3122
Outline: as §1

LXF-289 = tested on: LXF-289
Outline: as §1

NCI-H647 = tested on: NCI-H647
Outline: as §1

RERF-LC-KJ = tested on: RERF-LC-KJ
Outline: as §1

NCI-H2087 = tested on: NCI-H2087
Outline: as §1

NCI-H1792 = tested on: NCI-H1792
Outline: as §1

NCI-H1944 = tested on: NCI-H1944
Outline: as §1

NCI-H1650 = tested on: NCI-H1650
Outline: as §1

LCLC-103H = tested on: LCLC-103H
Outline: as §1

NCI-H1395 = tested on: NCI-H1395
Outline: as §1

HCC-827 = tested on: HCC-827
Outline: as §1

NCI-H322M = tested on: NCI-H322M
Outline: as §1

Nc1ccn([C@@H]2O[C@H](CO)[C@@H](O)[C@@H]2O)c(=O)n1 [Cytarabine] + CCNC(=O)c1noc(-c2cc(C(C)C)c(O)cc2O)c1-c1ccc(CN2CCOCC2)cc1 [Luminespib] (partner 0.01 µM)
relative viability (BEN; first compound 0.005 µM): 0.178 | relative viability (BEN; first compound 0.01581 µM): 0.324 | relative viability (BEN; first compound 0.05 µM): 0.247 | relative viability (BEN; first compound 0.1581 µM): 0.178 | relative viability (BEN; first compound 0.5 µM): 0.122 | relative viability (CAL-12T; first compound 0.005 µM): 0.227 | relative viability (CAL-12T; first compound 0.01581 µM): 0.288 | relative viability (CAL-12T; first compound 0.05 µM): 0.64 | relative viability (CAL-12T; first compound 0.1581 µM): 0.217 | relative viability (CAL-12T; first compound 0.5 µM): 0.178 | relative viability (NCI-H2228; first compound 0.005 µM): 0.141 | relative viability (NCI-H2228; first compound 0.01581 µM): 0.121 | relative viability (NCI-H2228; first compound 0.05 µM): 0.141 | relative viability (NCI-H2228; first compound 0.1581 µM): 0.116 | relative viability (NCI-H2228; first compound 0.5 µM): 0.12 | relative viability (SK-LU-1; first compound 0.005 µM): 0.178 | relative viability (SK-LU-1; first compound 0.01581 µM): 0.183 | relative viability (SK-LU-1; first compound 0.05 µM): 0.214 | relative viability (SK-LU-1; first compound 0.1581 µM): 0.185 | relative viability (SK-LU-1; first compound 0.5 µM): 0.185 | relative viability (201T; first compound 0.005 µM): 1.09 | relative viability (201T; first compound 0.01581 µM): 1.12 | relative viability (201T; first compound 0.05 µM): 1.14 | relative viability (201T; first compound 0.1581 µM): 0.982 | relative viability (201T; first compound 0.5 µM): 0.974 | relative viability (LCLC-97TM1; first compound 0.005 µM): 0.742 | relative viability (LCLC-97TM1; first compound 0.01581 µM): 0.69 | relative viability (LCLC-97TM1; first compound 0.05 µM): 0.709 | relative viability (LCLC-97TM1; first compound 0.1581 µM): 0.318 | relative viability (LCLC-97TM1; first compound 0.5 µM): 0.344 | relative viability (NCI-H2405; first compound 0.005 µM): 0.64 | relative viability (NCI-H2405; first compound 0.01581 µM): 0.547 | relative viability (NCI-H2405; first compound 0.05 µM): 0.553 | relative viability (NCI-H2405; first compound 0.1581 µM): 0.369 | relative viability (NCI-H2405; first compound 0.5 µM): 0.318 | relative viability (NCI-H727; first compound 0.005 µM): 0.22 | relative viability (NCI-H727; first compound 0.01581 µM): 0.527 | relative viability (NCI-H727; first compound 0.05 µM): 0.475 | relative viability (NCI-H727; first compound 0.1581 µM): 0.341 | relative viability (NCI-H727; first compound 0.5 µM): 0.309 | relative viability (NCI-H1793; first compound 0.005 µM): 0.201 | relative viability (NCI-H1793; first compound 0.01581 µM): 0.186 | relative viability (NCI-H1793; first compound 0.05 µM): 0.232 | relative viability (NCI-H1793; first compound 0.1581 µM): 0.184 | relative viability (NCI-H1793; first compound 0.5 µM): 0.155 | relative viability (NCI-H1437; first compound 0.005 µM): 0.86 | relative viability (NCI-H1437; first compound 0.01581 µM): 0.852 | relative viability (NCI-H1437; first compound 0.05 µM): 0.571 | relative viability (NCI-H1437; first compound 0.1581 µM): 0.301 | relative viability (NCI-H1437; first compound 0.5 µM): 0.23 | relative viability (NCI-H3122; first compound 0.005 µM): 0.0849 | relative viability (NCI-H3122; first compound 0.01581 µM): 0.0661 | relative viability (NCI-H3122; first compound 0.05 µM): 0.0881 | relative viability (NCI-H3122; first compound 0.1581 µM): 0.0776 | relative viability (NCI-H3122; first compound 0.5 µM): 0.0754 | relative viability (LXF-289; first compound 0.005 µM): 0.673 | relative viability (LXF-289; first compound 0.01581 µM): 0.665 | relative viability (LXF-289; first compound 0.05 µM): 0.43 | relative viability (LXF-289; first compound 0.1581 µM): 0.266 | relative viability (LXF-289; first compound 0.5 µM): 0.149 | relative viability (NCI-H647; first compound 0.005 µM): 0.146 | relative viability (NCI-H647; first compound 0.01581 µM): 0.111 | relative viability (NCI-H647; first compound 0.05 µM): 0.112 | relative viability (NCI-H647; first compound 0.1581 µM): 0.0665 | relative viability (NCI-H647; first compound 0.5 µM): 0.0757 | relative viability (RERF-LC-KJ; first compound 0.005 µM): 0.968 | relative viability (RERF-LC-KJ; first compound 0.01581 µM): 1.04 | relative viability (RERF-LC-KJ; first compound 0.05 µM): 0.977 | relative viability (RERF-LC-KJ; first compound 0.1581 µM): 0.38 | relative viability (RERF-LC-KJ; first compound 0.5 µM): 0.416 | relative viability (NCI-H2087; first compound 0.005 µM): 0.151 | relative viability (NCI-H2087; first compound 0.01581 µM): 0.134 | relative viability (NCI-H2087; first compound 0.05 µM): 0.169 | relative viability (NCI-H2087; first compound 0.1581 µM): 0.151 | relative viability (NCI-H2087; first compound 0.5 µM): 0.134 | relative viability (NCI-H1792; first compound 0.01581 µM): 0.431 | relative viability (NCI-H1792; first compound 0.05 µM): 0.366 | relative viability (NCI-H1792; first compound 0.1581 µM): 0.313 | relative viability (NCI-H1792; first compound 0.5 µM): 0.271 | relative viability (NCI-H1944; first compound 0.005 µM): 0.619 | relative viability (NCI-H1944; first compound 0.01581 µM): 0.343 | relative viability (NCI-H1944; first compound 0.05 µM): 0.264 | relative viability (NCI-H1944; first compound 0.1581 µM): 0.185 | relative viability (NCI-H1944; first compound 0.5 µM): 0.134 | relative viability (NCI-H1650; first compound 0.005 µM): 0.208 | relative viability (NCI-H1650; first compound 0.01581 µM): 0.181 | relative viability (NCI-H1650; first compound 0.05 µM): 0.254 | relative viability (NCI-H1650; first compound 0.1581 µM): 0.218 | relative viability (NCI-H1650; first compound 0.5 µM): 0.209 | relative viability (LCLC-103H; first compound 0.005 µM): 0.96 | relative viability (LCLC-103H; first compound 0.01581 µM): 1.05 | relative viability (LCLC-103H; first compound 0.05 µM): 1.03 | relative viability (LCLC-103H; first compound 0.1581 µM): 0.909 | relative viability (LCLC-103H; first compound 0.5 µM): 0.947 | relative viability (NCI-H1395; first compound 0.005 µM): 0.544 | relative viability (NCI-H1395; first compound 0.01581 µM): 0.61 | relative viability (NCI-H1395; first compound 0.05 µM): 0.437 | relative viability (NCI-H1395; first compound 0.1581 µM): 0.366 | relative viability (NCI-H1395; first compound 0.5 µM): 0.346 | relative viability (HCC-827; first compound 0.005 µM): 0.591 | relative viability (HCC-827; first compound 0.01581 µM): 0.396 | relative viability (HCC-827; first compound 0.05 µM): 0.336 | relative viability (HCC-827; first compound 0.1581 µM): 0.154 | relative viability (HCC-827; first compound 0.5 µM): 0.144 | relative viability (NCI-H322M; first compound 0.005 µM): 0.812 | relative viability (NCI-H322M; first compound 0.01581 µM): 0.685 | relative viability (NCI-H322M; first compound 0.05 µM): 0.514 | relative viability (NCI-H322M; first compound 0.1581 µM): 0.387 | relative viability (NCI-H322M; first compound 0.5 µM): 0.351
